Data: ChEMBL document CHEMBL1201862, “PubChem BioAssay data set” (2004)
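How tested: cells in 96-well plates exposed to compound for 48 hours at five concentrations. GI50 is the concentration that inhibits growth by half.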 Activity calls are given as the source filed them. Cut-off read from the data, not from the text of the source: active = GI50 up to about 1.1 µM and inactive = higher.

Tests used:
Experiment in all cases: NCI tumour cell line growth inhibition, 48 h
MCF7 = tested on: MCF7
ACHN = tested on: ACHN
A549 = tested on: A549
NCI/ADR-RES = tested on: NCI/ADR-RES
UACC-257 = tested on: UACC-257
OVCAR-3 = tested on: OVCAR-3
Malme-3M = tested on: Malme-3M
NCI-H226 = tested on: NCI-H226
SF-539 = tested on: SF-539
HL-60 = tested on: HL-60
SW-620 = tested on: SW-620
HCT-116 = tested on: HCT-116
SNB-19 = tested on: SNB-19
IGROV-1 = tested on: IGROV-1
MDA-N = tested on: MDA-N
786-0 = tested on: 786-0
MDA-MB-435 = tested on: MDA-MB-435
SF-295 = tested on: SF-295
Hs-578T = tested on: Hs-578T

Measured: GI50

C1CCC2C(C1)CCCC2NC1=NCCO1 (stereo unspecified)
inactive: MCF7 69.2 µM | ACHN > 100 µM | A549 > 100 µM | NCI/ADR-RES > 100 µM | UACC-257 69.3 µM | OVCAR-3 > 100 µM | Malme-3M > 100 µM | NCI-H226 > 100 µM | SF-539 > 100 µM | HL-60 > 100 µM | SW-620 > 100 µM | HCT-116 > 100 µM | SNB-19 > 100 µM | IGROV-1 > 100 µM | MDA-N > 100 µM | 786-0 > 100 µM | MDA-MB-435 > 100 µM | SF-295 > 100 µM

O=C1Nc2cc([N+](=O)[O-])ccc2C(=O)N2CCC[C@@H]12
inactive: MCF7 > 100 µM | ACHN > 100 µM | A549 > 100 µM | NCI/ADR-RES > 100 µM | UACC-257 > 100 µM | OVCAR-3 > 100 µM | NCI-H226 > 100 µM | SF-539 > 100 µM | HL-60 > 100 µM | SW-620 > 100 µM | HCT-116 > 100 µM | SNB-19 > 100 µM | IGROV-1 > 100 µM | Hs-578T > 100 µM | 786-0 > 100 µM | MDA-MB-435 > 100 µM | SF-295 > 100 µM

CN(C)C(=S)N/N=C\C=N/NC(=S)N(C)C
inactive: UACC-257 2.64 µM | SF-539 6.97 µM | MDA-N 3.29 µM
active: MCF7 0.329 µM | ACHN 0.238 µM | A549 0.0918 µM | NCI/ADR-RES 0.189 µM | OVCAR-3 0.0295 µM | Malme-3M 0.182 µM | NCI-H226 0.515 µM | SW-620 0.0569 µM | SNB-19 0.731 µM | IGROV-1 0.47 µM | 786-0 0.209 µM | MDA-MB-435 0.953 µM | SF-295 0.158 µM

COc1cc(/C=C2\N=C(C)N(n3c(-c4ccccc4)nc4ccccc4c3=O)C2=O)cc(OC)c1OC
inactive: MCF7 > 100 µM | ACHN > 100 µM | A549 > 100 µM | UACC-257 > 100 µM | Malme-3M > 100 µM | NCI-H226 > 100 µM | SF-539 > 100 µM | HL-60 > 100 µM | SW-620 > 100 µM | HCT-116 > 100 µM | SNB-19 > 100 µM | IGROV-1 > 100 µM | Hs-578T > 100 µM | MDA-N > 100 µM | 786-0 > 100 µM | MDA-MB-435 > 100 µM | SF-295 > 100 µM

CCN(CC)CCO/N=C1/C=C2CCC3C(CC[C@@]4(C)C3CC[C@]4(C)O)[C@@]2(C)CC1 (stereo partly specified)
inactive: MCF7 3.95 µM | ACHN 5.87 µM | A549 7.36 µM | NCI/ADR-RES 1.96 µM | UACC-257 4.9 µM | OVCAR-3 2.8 µM | Malme-3M 3.64 µM | NCI-H226 2.49 µM | SF-539 3.18 µM | HCT-116 4.21 µM | SNB-19 11.6 µM | IGROV-1 4.8 µM | Hs-578T 5.12 µM | MDA-N 2.49 µM | 786-0 3.69 µM | MDA-MB-435 1.69 µM | SF-295 2.33 µM

S=C=NC1CCC(c2cc3ccccc3s2)(N2CCCCC2)CC1 (stereo unspecified)
inactive: MCF7 2.09 µM | ACHN 1.93 µM | A549 3.01 µM | NCI/ADR-RES 1.84 µM | UACC-257 1.73 µM | OVCAR-3 2.09 µM | Malme-3M 1.61 µM | SF-539 1.95 µM | HL-60 1.31 µM | SW-620 2.02 µM | HCT-116 1.82 µM | SNB-19 2.79 µM | Hs-578T 2.08 µM | MDA-N 1.77 µM | 786-0 1.78 µM | MDA-MB-435 1.62 µM | SF-295 2.58 µM

O=[N+]([O-])C(/C(Cl)=C(/Cl)N1CCOCC1)=C1\Nc2ccccc2O1
inactive: MCF7 > 100 µM | ACHN > 100 µM | A549 > 100 µM | NCI/ADR-RES 83.2 µM | UACC-257 15 µM | OVCAR-3 24.4 µM | Malme-3M > 100 µM | NCI-H226 > 100 µM | SF-539 > 100 µM | SW-620 > 100 µM | HCT-116 > 100 µM | SNB-19 > 100 µM | Hs-578T > 100 µM | 786-0 > 100 µM | MDA-MB-435 > 100 µM | SF-295 > 100 µM

COc1cccc(C2c3cc4c(cc3OC(NNC(N)=O)C2C)OCO4)c1OC (stereo unspecified)
inactive: MCF7 31 µM | ACHN 26.9 µM | A549 19.6 µM | UACC-257 27.3 µM | OVCAR-3 17.5 µM | Malme-3M 25.9 µM | NCI-H226 25.3 µM | SF-539 15.4 µM | HL-60 20.8 µM | SW-620 22.6 µM | HCT-116 14.1 µM | SNB-19 29.1 µM | IGROV-1 23.7 µM | Hs-578T 19.7 µM | MDA-N 18 µM | 786-0 4.76 µM | MDA-MB-435 19.9 µM | SF-295 18.1 µM

COc1ccc(CSc2ccccc2Cn2cccc2)cc1OC
inactive: MCF7 36.2 µM | ACHN 10.4 µM | A549 98.2 µM | NCI/ADR-RES 34.3 µM | UACC-257 27.8 µM | OVCAR-3 16 µM | Malme-3M 28.3 µM | NCI-H226 > 100 µM | SF-539 > 100 µM | HL-60 20.7 µM | SW-620 > 100 µM | HCT-116 89.1 µM | SNB-19 > 100 µM | IGROV-1 > 100 µM | MDA-N > 100 µM | 786-0 > 100 µM | MDA-MB-435 > 100 µM | SF-295 25.5 µM

c1ccc(/N=c2/[nH]c3ccccc3s/c2=N/c2ccccc2)cc1
inactive: ACHN > 100 µM | A549 > 100 µM | NCI/ADR-RES > 100 µM | UACC-257 > 100 µM | Malme-3M > 100 µM | NCI-H226 > 100 µM | SF-539 > 100 µM | HL-60 > 100 µM | SW-620 > 100 µM | HCT-116 > 100 µM | SNB-19 > 100 µM | IGROV-1 > 100 µM | Hs-578T > 100 µM | 786-0 > 100 µM | MDA-MB-435 > 100 µM | SF-295 > 100 µM

Oc1cccc(/C=N/N=c2/[nH][nH]/c(=N/N=C/c3cccc(O)c3)c3ccccc23)c1
inactive: MCF7 26.7 µM | ACHN 14.3 µM | A549 21.4 µM | NCI/ADR-RES 22.2 µM | UACC-257 29.9 µM | OVCAR-3 13.9 µM | Malme-3M 15.5 µM | NCI-H226 14.5 µM | SF-539 16.9 µM | SW-620 14.6 µM | HCT-116 11.5 µM | SNB-19 24.4 µM | IGROV-1 11.6 µM | Hs-578T 18.7 µM | 786-0 13.7 µM | MDA-MB-435 22.9 µM | SF-295 13.5 µM

COC(=O)[C@H](Cc1c[nH]c2ccccc12)NC(=O)c1ccc(CNC(=O)/C=C/c2cccc(Oc3ccccc3)c2)cc1
inactive: MCF7 > 100 µM | ACHN > 100 µM | A549 92.9 µM | NCI/ADR-RES > 100 µM | UACC-257 15.7 µM | OVCAR-3 > 100 µM | Malme-3M 22.8 µM | NCI-H226 > 100 µM | SW-620 > 100 µM | HCT-116 > 100 µM | SNB-19 91.6 µM | IGROV-1 > 100 µM | Hs-578T 34.7 µM | MDA-N 5.38 µM | 786-0 > 100 µM | MDA-MB-435 5.7 µM | SF-295 > 100 µM

COC(=O)Cc1ccc2c(c1)Sc1ccc(CC(=O)OC)cc1N2C
inactive: MCF7 9.57 µM | ACHN 38 µM | A549 24 µM | NCI/ADR-RES 16.3 µM | UACC-257 30.5 µM | OVCAR-3 23.3 µM | Malme-3M 23.8 µM | NCI-H226 49.5 µM | SF-539 36.3 µM | HL-60 20.7 µM | SW-620 39.1 µM | HCT-116 24.1 µM | SNB-19 44 µM | IGROV-1 45.8 µM | Hs-578T 39.3 µM | 786-0 25.5 µM | MDA-MB-435 6.4 µM | SF-295 22.8 µM

COc1ccc(C(=O)/C=C/c2ccc(Oc3cc(C(=O)/C=C/c4ccc(O)cc4)c(O)cc3OC)cc2)c(O)c1 [RHUSCHALCONE I]
inactive: MCF7 4.41 µM | ACHN 2.9 µM | A549 8.71 µM | NCI/ADR-RES 3.24 µM | UACC-257 25.5 µM | OVCAR-3 4.3 µM | Malme-3M 17.2 µM | SF-539 2.19 µM | HL-60 3.08 µM | SW-620 4.72 µM | HCT-116 1.87 µM | SNB-19 8.3 µM | IGROV-1 2.59 µM | Hs-578T 16.7 µM | MDA-N 3.48 µM | 786-0 2.51 µM | MDA-MB-435 3.55 µM | SF-295 6.41 µM

CCCC(=O)NC(Nc1ccc(S(=O)(=O)Nc2ccc(OC)nn2)cc1)(C(F)(F)F)C(F)(F)F
inactive: ACHN > 100 µM | A549 > 100 µM | NCI/ADR-RES > 100 µM | UACC-257 > 100 µM | OVCAR-3 > 100 µM | Malme-3M > 100 µM | NCI-H226 > 100 µM | SF-539 > 100 µM | HL-60 > 100 µM | SW-620 > 100 µM | HCT-116 > 100 µM | SNB-19 > 100 µM | IGROV-1 > 100 µM | Hs-578T > 100 µM | MDA-N > 100 µM | 786-0 > 100 µM | MDA-MB-435 > 100 µM | SF-295 > 100 µM

O=C1CC(O)c2c(Br)sc(Br)c21 (stereo unspecified)
inactive: MCF7 3.46 µM | ACHN 16.2 µM | A549 19.3 µM | NCI/ADR-RES 30.3 µM | UACC-257 3.85 µM | OVCAR-3 4.69 µM | Malme-3M 17.1 µM | SF-539 6.5 µM | HL-60 3.2 µM | SW-620 1.93 µM | HCT-116 12.4 µM | SNB-19 18.6 µM | IGROV-1 15.9 µM | Hs-578T 25.6 µM | MDA-N 8.81 µM | 786-0 4.1 µM | MDA-MB-435 5.58 µM | SF-295 17.1 µM
